Results on 17 compounds are retold here after US7858072B2, “Stilbene derivatives and their use for binding and imaging amyloid plaques” (The Trustees of the University of Pennsylvania, priority 2004, dated 2010).

A short description of series [1]: Partition coefficient (1-octanol/buffer). The format is physicochemical. To be noted: 1-octanol / 0.1 M phosphate buffer, pH 7.4. How it is done: Partition coefficients were measured by mixing the [^18F]tracer with 3 g each of 1-octanol and buffer (0.1 M phosphate, pH 7.4) in a test tube. The test tube was vortexed for 3 min at room temperature, followed by centrifugation for 5 min. Two weighed samples (0.5 g each) from the 1-octanol and buffer layers were counted in a well counter. The partition coefficient was determined by calculating the ratio of cpm/g of 1-octanol to that of buffer. Samples from the 1-octanol layer were re-partitioned until consistent partitions of coefficient values were obtained (usually the 3rd or 4th partition). The measurement was done in triplicate and repeated three times.

Series [2] can be described thus: Organ distribution in normal mice after iv injection of [18F]tracers. The format is in vivo. To be noted: ICR mice, [18F]tracer in 0.1% BSA. How it is done: The organs of interest were removed and weighed, and the radioactivity was assayed for radioactivity content with an automatic gamma counter. The percentage dose per organ was calculated by a comparison of the tissue counts to suitably diluted aliquots of the injected material. Total activities of blood were calculated under the assumption that they were 7% of the total body weight. The % dose/g of samples was calculated by comparing the sample counts with the count of the diluted initial dose.

Series [3] deals with Aβ plaques (postmortem AD brain homogenates) (Homo sapiens, UniProt P05067). In words: Binding assay: inhibition of [125I]IMPY binding in postmortem AD brain homogenates. As for the experimental part:
Postmortem brain tissues were obtained from AD patients at autopsy, and neuropathological diagnosis was confirmed by current criteria (NIA-Reagan Institute Consensus Group, 1997). Homogenates were then prepared from dissected gray matters from AD patients in phosphate buffered saline (PBS, pH 7.4) at the concentration of approximately 100 mg wet tissue/ml (motor-driven glass homogenizer with setting of 6 for 30 sec).
Binding assays were carried out in 12×75 mm borosilicate glass tubes. […] The mixture was incubated at 37° C. for 2 hr and the bound and the free radioactivity were separated by vacuum filtration through Whatman GF/B filters using a Brandel M-24R cell harvester followed by 2×3 ml washes of PBS at room temperature. Filters containing the bound ^125I ligand were assayed for radioactivity content in a gamma counter (Packard 5000) with 70% counting efficiency. […] The results of inhibition experiments were subjected to nonlinear regression analysis using EBDA by which Ki values were calculated.

A further series addresses AD cortical homogenates. To be noted: Kung et al. 2004, cited from earlier work.
A further series deals with Aβ plaques. Conditions: cited from earlier work.
For another series, the target named is fibrillar Aβ aggregates (Homo sapiens, UniProt P05067). To be noted: Mathis et al. 1997; read-out: inhibition constants (Ki) for binding to fibrillar Aβ aggregates; cited from earlier work.
Chain of fibrillar Aβ aggregates (P05067 672-711 limits assumed): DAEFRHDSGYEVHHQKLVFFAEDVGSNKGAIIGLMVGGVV

Structures are written as SMILES. Like-named read-outs stand apart in the source and are kept apart here.

Chain of Aβ plaques (postmortem AD brain homogenates) (P05067 672-711 limits assumed): as above

With `CNc1ccc(C=Cc2ccc(OCCOCCOCCOCCOCC[18F])cc2)cc1` [[^18F]12d], the “logp value (lipophilicity)” value in series [1] amounted to 2.28.

Turning to `CNc1ccc(C=Cc2ccc(OCCOCCOCCOCCF)cc2)cc1` [Compound 12c, (4-{2-[4-(2-{2-[2-(2-Fluoro-ethoxy)-ethoxy]-ethoxy}-ethoxy)-phenyl]-vinyl}-phenyl)-methyl-amine], the Blood in series [2] (2 min) was 3.22 ± 0.20 % dose/g; in series [2] (30 min), 1.88 ± 0.08 % dose/g; in series [2] (1 hr), 1.81 ± 0.48 % dose/g; in series [2] (2 hr) it was 1.60 ± 0.12 % dose/g. Also, the Bone was determined as 2.31 ± 0.12 % dose/g in series [2] (2 min), 1.00 ± 0.02 % dose/g in series [2] (30 min), 0.98 ± 0.27 % dose/g in series [2] (1 hr) and 1.50 ± 0.05 % dose/g in series [2] (2 hr). For the same compound, the Brain in series [2] (2 min) came out at 6.59 ± 0.19 % dose/g; in series [2] (30 min), 1.27 ± 0.03 % dose/g; in series [2] (1 hr) it was 1.20 ± 0.10 % dose/g; in series [2] (2 hr), 1.21 ± 0.06 % dose/g.

Consider `CNc1ccc(C=Cc2ccc(OCCOCCOCCO)cc2)cc1` [Compound 3b, 2-[-2-(2-{4-[2-(4-Methylamino-phenyl)-vinyl]-phenoxy}-ethoxy)-ethoxy]-ethanol], for which the Ki (in general, the dissociation constant of the complex between target and ligand, obtained from inhibition or displacement) in series [3] (read-out: Ki ± SEM, X = OH) was determined as 2.8 ± 0.2 nM.

With `CNc1ccc(C=Cc2ccc(OCCOCCO)cc2)cc1` [Compound 3a, 2-(2-{4-[2-(4-Methylamino-phenyl)-vinyl]-phenoxy}-ethoxy)-ethanol], the Ki in series [3] (read-out: Ki ± SEM, X = OH) was determined as 5.2 ± 0.4 nM.

For `CNc1ccc(C=Cc2ccc(OCCOCCF)cc2)cc1` [Compound 12a, [4-(2-{4-[2-(2-Fluoro-ethoxy)-ethoxy]-phenyl}-vinyl)-phenyl]-methyl-amine], the inhibition constant Ki in series [3] (read-out: Ki ± SEM, X = F) is 2.9 ± 0.2 nM. In addition, the Blood in series [2] (2 min) was determined as 2.64 ± 0.55 % dose/g; in series [2] (30 min), 2.42 ± 0.27 % dose/g; in series [2] (1 hr), 2.04 ± 0.16 % dose/g; in series [2] (2 hr), 2.77 ± 0.63 % dose/g. The Bone in series [2] (2 min) is recorded as 1.89 ± 0.25 % dose/g; in series [2] (30 min), 1.40 ± 0.11 % dose/g; in series [2] (1 hr), 1.71 ± 0.23 % dose/g; in series [2] (2 hr), 2.88 ± 0.07 % dose/g. In addition, the Brain was determined as 8.14 ± 2.03 % dose/g in series [2] (2 min), 3.00 ± 0.16 % dose/g in series [2] (30 min), 2.60 ± 0.22 % dose/g in series [2] (1 hr) and 2.14 ± 0.06 % dose/g in series [2] (2 hr).

For `CNc1ccc(/C=C/c2ccc(O)cc2)cc1` [[^3H]SB-13], the Kd (as a rule, a measure of binding affinity in units of concentration) on AD cortical homogenates is 2.4 ± 0.2 nM.

Consider `[11CH3]Nc1ccc(-c2nc3ccc(O)cc3s2)cc1` [[^11C]6-OH-BTA-1], for which the “retention in the cortex” value in the series with Aβ plaques (patients with diagnosed mild AD) is given as “marked retention”.

Take `CNc1ccc(C=Cc2ccc(OCCOCCOCCOCC[18F])cc2)cc1` [[^18F]12c]: the “logp value (lipophilicity)” value in series [1] worked out at 2.05.

For `CNc1ccc(C=Cc2ccc(OCCOCCOCCOCCOCCF)cc2)cc1` [Compound 12d, [4-(2-{4-[2-(2-{2-[2-(2-Fluoro-ethoxy)-ethoxy]-ethoxy}-ethoxy)-ethoxy]-phenyl}-vinyl)-phenyl]-methyl-amine], the Ki in series [3] (read-out: Ki ± SEM, X = F) was 6 ± 0.8 nM. For the same compound, the Blood in series [2] (2 min) stood at 4.99 ± 0.38 % dose/g; in series [2] (30 min), 4.66 ± 0.06 % dose/g; in series [2] (1 hr) it was 2.89 ± 0.11 % dose/g; in series [2] (2 hr), 2.59 ± 0.18 % dose/g. Also, the Bone in series [2] (2 min) turned out to be 2.24 ± 0.21 % dose/g; in series [2] (30 min) it was 2.29 ± 0.21 % dose/g; in series [2] (1 hr), 1.66 ± 0.01 % dose/g; in series [2] (2 hr), 2.35 ± 0.27 % dose/g. The Brain was found to be 7.30 ± 1.05 % dose/g in series [2] (2 min), 2.43 ± 0.03 % dose/g in series [2] (30 min), 1.77 ± 0.11 % dose/g in series [2] (1 hr) and 1.62 ± 0.03 % dose/g in series [2] (2 hr).

Regarding `O=C(O)c1cc(/N=N/c2ccc(-c3ccc(/N=N/c4ccc(O)c(C(=O)O)c4)cc3)cc2)ccc1O` [CG, chrysamine-G], the Ki at fibrillar Aβ aggregates was 370 nM.

Turning to `CNc1ccc(C=Cc2ccc(OCCOCCOCCOCCOCCO)cc2)cc1` [Compound 3d, 2-(2-{2-[2-(2-{4-[2-(4-Methylamino-phenyl)-vinyl]-phenoxy}-ethoxy)-ethoxy]-ethoxy}-ethoxy)-ethanol], the Ki in series [3] (read-out: Ki ± SEM, X = OH) is 5.2 ± 0.2 nM.

As for `CNc1ccc(C=Cc2ccc(OCCOCC[18F])cc2)cc1` [[^18F]12a, [^18F][4-(2-{4-[2-(2-Fluoro-ethoxy)-ethoxy]-phenyl}-vinyl)-phenyl]-methyl-amine], the “logp value (lipophilicity)” value in series [1] is given as 2.52.

Regarding `CC(=C(C#N)C#N)c1ccc2cc(N(C)CCF)ccc2c1` [[^18F]FDDNP], the “relative residence time of the brain region of interest versus the pons” value with Aβ plaques (AD patients versus comparison subjects, PET) was “significantly higher in AD patients”.

For `[11CH3]Nc1ccc(/C=C/c2ccc(O)cc2)cc1` [[^11C]SB-13], the “accumulation in the frontal cortex” value in the series on Aβ plaques (mild to moderate AD patients, not in age-matched control subjects) is recorded as “high accumulation”.

`CNc1ccc(C=Cc2ccc(OCCOCCOCC[18F])cc2)cc1` [[^18F]12b, [^18F]{4-[2-(4-{2-[2-(2-Fluoro-ethoxy)-ethoxy]-ethoxy}-phenyl)-vinyl]-phenyl}-methyl-amine]: the Bone in series [2] (2 hr) turned out to be 2.74 % dose/g. For the same compound, the “logp value (lipophilicity)” value in series [1] worked out at 2.41.

Take `[3H]N(c1ccc(/C=C/c2ccc(O)cc2)cc1)C([3H])([3H])[3H]` [[^3H]SB-13]: the binding capacity in the series on AD cortical homogenates (AD cortical homogenates) was 14-45 pmol/mg protein.

For the compound `CNc1ccc(C=Cc2ccc(OCCOCCOCCOCCO)cc2)cc1` [Compound 3c, 2-{2-[2-(2-{4-[2-(4-Methylamino-phenyl)-vinyl]-phenoxy}-ethoxy)-ethoxy]-ethoxy}-ethanol], in series [3] (read-out: Ki ± SEM, X = OH), the Ki was found to be 4.6 ± 0.2 nM.
